Laboratory results from patent US20070117743A1, “New antitumoral compounds” (priority 2003, published 2007).
Read-outs that look alike come from different tables or passages of the source. Where a SMILES comes first, the peptide text is derived from it. Bridges are numbered along the chain shown (N, C = ends). [ ]: non-standard residue; d: D form. The star is where a group is joined. d(aIle) = CC[C@H](C)[C@@H](N)C(=O)O; d(aThr) = C[C@@H](O)[C@@H](N)C(=O)O; Hexanoyl(5-Me) = CC(C)CCCC(=O)*; Orn = NCCC[C@H](N)C(=O)O; Dhb = C/C=C(\N)C(=O)O

Experiments:
Assay type in all cases: cell-based, human
[1] = system: HeLa-APL; assay: SRB colorimetric assay of cell growth and viability, HeLa-APL; conditions: 48 hours exposure; for CC50: read-out: LC50 HELA-APL
[2] = system: SK-MEL-28; assay: SRB colorimetric assay of cell growth and viability, SK-MEL-28; conditions: 48 hours exposure; for CC50: read-out: LC50 MEL-28
[3] = system: PANC-1; assay: SRB colorimetric assay of cell growth and viability, PANC-1; conditions: 48 hours exposure; for CC50: read-out: LC50 PANC-1
[4] = system: LoVo; assay: SRB colorimetric assay of cell growth and viability, LoVo; conditions: 48 hours exposure; for CC50: read-out: LC50 LOVO
[5] = system: A-549; assay: SRB colorimetric assay of cell growth and viability, A-549; conditions: 48 hours exposure; for GI50: read-out: GI50 A-549; for CC50: read-out: LC50 A-549
[6] = system: K-562; assay: SRB colorimetric assay of cell growth and viability, K-562; conditions: 48 hours exposure; for CC50: read-out: LC50 K-562
[7] = system: HT-29; assay: SRB colorimetric assay of cell growth and viability, HT-29; conditions: 48 hours exposure; for GI50: read-out: GI50 HT-29; for CC50: read-out: LC50 HT-29
[8] = system: DU-145; assay: SRB colorimetric assay of cell growth and viability, DU-145; conditions: 48 hours exposure
[9] = system: IGROV-ET; assay: SRB colorimetric assay of cell growth and viability, IGROV-ET; conditions: 48 hours exposure; for CC50: read-out: LC50 IGROV-ET
[10] = system: SK-BR-3; assay: SRB colorimetric assay of cell growth and viability, SK-BR-3; conditions: 48 hours exposure
[11] = system: HeLa; assay: SRB colorimetric assay of cell growth and viability, HeLa; conditions: 48 hours exposure; for CC50: read-out: LC50 HELA
[12] = system: IGROV-1; assay: SRB colorimetric assay of cell growth and viability, IGROV-1; conditions: 48 hours exposure
[13] = system: LNCaP; assay: SRB colorimetric assay of cell growth and viability, LNCaP; conditions: 48 hours exposure; for GI50: read-out: GI50 LN-caP; for CC50: read-out: LC50 LN-caP
Description: The finality of this assay is to interrupt the growth of a “in vitro” tumor cell culture by means a continued exhibition of the cells to the sample to be testing.
This form of the assay employs 96 well cell culture microplates of 9 mm diameter (Faircloth, 1988; Mosmann, 1983). Most of the cell lines are obtained from American Type Culture Collection (ATCC) derived from different human cancer types.
Cells are maintained in RPMI 1640 10% FBS, supplemented with 0.1 g/l penicillin and 0.1 g/l streptomycin sulfate and then incubated at 37° C., 5% CO2 and 98% humidity. For the experiments, cells were harvested from subconfluent cultures using trypsin and resuspended in fresh medium before plating.
Cells are seeded in 96 well microtiter plates, at 5×10^3 cells per well in aliquots of 195 μL medium, and they are allowed to attach to the plate surface by growing in drug free medium for 18 hours. Afterward, samples are added in aliquots of 5 μL in a ranging from 10 to 10^−8 μg/mL, dissolved in DMSO:EtOH:PBS (0.5:0.5:99). After 48 hours exposure, the antitumor effect are measured by the SRB methodology: cells are fixed by adding 50 μL of cold 50% (wt/vol) trichloroacetic acid (TCA) and incubating for 60 minutes at 4° C. Plates are washed with deionized water and dried. One hundred μL of SRB solution (0.4% wt/vol in 1% acetic acid) is added to each microtiter well and incubated for 10 minutes at room temperature. Unbound SRB is removed by washing with 1% acetic acid. Plates are air dried and bound stain is solubilized with Tris buffer. Optical densities are read on a automated spectrophotometric plate reader at a single wavelength of 490 nm.
The values for mean+/− SD of data from triplicate wells are calculated. Some parameters for cellular responses can be calculated: GI=growth inhibition, TGI=total growth inhibition (cytostatic effect) and LC=cell killing (cytotoxic effect).

[14] = system: LoVo-Dox; assay: SRB colorimetric assay of cell growth and viability, LoVo-Dox; conditions: LOVO-DOX, 48 hours exposure
Summary of the method: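 Sulforhodamine B assay run after 48 h of continuous drug contact; cells seeded 5×10^3/well in RPMI 1640 10% FBS, attached 18 h. Triplicate OD490 values give cytostatic (TGI), cytotoxic (LC) and GI parameters.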

SMILES: C/C=C1\NC(=O)[C@H](Cc2ccccc2)NC(=O)[C@@H](C(C)C)NC(=O)[C@@H]([C@@H](C)CC)NC(=O)[C@H](NC(=O)[C@H](NC(=O)[C@H](CCCN)NC(=O)[C@H]2CCCN2C(=O)[C@H](NC(=O)[C@H](C)NC(=O)[C@@H](NC(=O)[C@H](NC(=O)CCCC(C)C)C(C)C)[C@@H](C)O)C(C)C)[C@@H](C)CC)[C@@H](C)OC(=O)[C@H](C(C)C)NC1=O [Compound 44, [Ala^11]-KF] ({Hexanoyl(5-Me)}-[dV]TA[dV][dP][Orn][d(aIle)][d(aThr)][d(aIle)][dV]F[Dhb]V; ester 8-C)
- GI50 [1]: 3.18 µM
- TGI HELA-APL [1]: 6.90E−06 Molar
- CC50 [1]: 6.9 µM
- GI50 [2]: 3.69 µM
- TGI MEL-28 [2]: 6.90E−06 Molar
- CC50 [2]: 6.9 µM
- GI50 [3]: 6.9 µM
- TGI PANC-1 [3]: 6.90E−06 Molar
- CC50 [3]: 6.9 µM
- GI50 [4]: 0.973 µM
- TGI LOVO [4]: 2.03E−06 Molar
- CC50 [4]: 4.23 µM
- TGI A-549 [5]: 6.90E−06 Molar
- GI50 [5]: 2.69 µM
- CC50 [5]: 6.9 µM
- GI50 [6]: 3.06 µM
- TGI K-562 [6]: 6.90E−06 Molar
- CC50 [6]: 6.9 µM
- TGI HT-29 [7]: 2.61E−06 Molar
- GI50 [7]: 1.34 µM
- CC50 [7]: 5.08 µM
- GI50 [8]: 3.03 µM
- LC50 (concentration causing 50% net cell kill) [8]: 6.9 µM
- TGI DU-145 [8]: 6.90E−06 Molar
- GI50 [9]: 1.5 µM
- TGI IGROV-ET [9]: 2.95E−06 Molar
- CC50 [9]: 5.77 µM
- GI50 [10]: 1.19 µM
- LC50 [10]: 5.3 µM
- TGI SK-BR-3 [10]: 2.52E−06 Molar
- GI50 [11]: 2.85 µM
- TGI HELA [11]: 6.90E−06 Molar
- CC50 [11]: 6.9 µM
- GI50 [12]: 1.43 µM
- LC50 (concentration causing 50% net cell killing) [12]: 5.72 µM
- TGI IGROV [12]: 2.86E−06 Molar
- GI50 [13]: 2.78 µM
- CC50 [13]: 6.9 µM

SMILES: C/C=C1\NC(=O)[C@H](Cc2ccccc2)NC(=O)[C@@H](C(C)C)NC(=O)[C@@H]([C@@H](C)CC)NC(=O)[C@H](NC(=O)[C@H](NC(=O)[C@H](CCCN)NC(=O)[C@H]2CCCCN2C(=O)[C@H](NC(=O)[C@@H](NC(=O)[C@@H](NC(=O)[C@H](NC(=O)CC[C@@H](C)CC)C(C)C)[C@@H](C)O)C(C)C)C(C)C)[C@@H](C)CC)[C@@H](C)OC(=O)[C@H](C(C)C)NC1=O [Compound 60, [D-Pip^9, (4S)-MeHex^14]-KF]
- GI50 ([1]; HELA-APL): 2.05 µM
- TGI HELA-APL ([1]; HELA-APL): 4.42E−06 Molar
- CC50 ([1]; HELA-APL): 6.7 µM
- GI50 ([2]; SRB): 1.66 µM
- TGI MEL-28 ([2]; SRB): 3.07E−06 Molar
- CC50 ([2]; SRB): 5.68 µM
- GI50 ([3]; PANC-1): 6.7 µM
- TGI PANC-1 ([3]; PANC-1): 6.70E−06 Molar
- CC50 ([3]; PANC-1): 6.7 µM
- GI50 ([4]; LOVO): 1.03 µM
- TGI LOVO ([4]; LOVO): 2.44E−06 Molar
- CC50 ([4]; LOVO): 5.77 µM
- TGI A-549 ([5]; A-549): 3.66E−06 Molar
- GI50 ([5]; A-549): 1.61 µM
- CC50 ([5]; A-549): 6.7 µM
- GI50 ([6]; K-562): 5.3 µM
- TGI K-562 ([6]; K-562): 6.70E−06 Molar
- CC50 ([6]; K-562): 6.7 µM
- TGI HT-29 ([7]; HT-29): 2.16E−06 Molar
- GI50 ([7]; HT-29): 1.04 µM
- CC50 ([7]; HT-29): 4.47 µM
- GI50 [14]: 0.624 µM
- TGI LOVO-DOX [14]: 1.98E−06 Molar
- CC50 ([14]; read-out: LC50 LOVO-DOX): 6.14 µM
- GI50 ([8]; SRB): 1.64 µM
- LC50 (concentration causing 50% net cell kill) ([8]; SRB): 6.16 µM
- TGI DU-145 ([8]; SRB): 3.17E−06 Molar
- GI50 ([9]; SRB): 1.21 µM
- TGI IGROV-ET ([9]; SRB): 2.68E−06 Molar
- CC50 ([9]; SRB): 5.95 µM
- GI50 ([11]; HELA): 3.15 µM
- TGI HELA ([11]; HELA): 6.70E−06 Molar
- CC50 ([11]; HELA): 6.7 µM
- GI50 ([12]; SRB): 1.24 µM
- LC50 (concentration causing 50% net cell killing) ([12]; SRB): 6.28 µM
- TGI IGROV ([12]; SRB): 2.79E−06 Molar
- TGI LN-caP ([13]; SRB): 2.59E−06 Molar
- GI50 ([13]; SRB): 1.23 µM
- CC50 ([13]; SRB): 5.43 µM

SMILES: C/C=C1\NC(=O)[C@H](Cc2ccccc2)NC(=O)[C@@H](C(C)C)NC(=O)[C@@H]([C@@H](C)CC)NC(=O)[C@H](NC(=O)[C@H](NC(=O)[C@H](CCCN)NC(=O)[C@@H]2CC[C@H](c3ccccc3)N2C(=O)[C@H](NC(=O)[C@@H](NC(=O)[C@@H](NC(=O)[C@H](NC(=O)CC[C@@H](C)CC)C(C)C)[C@@H](C)O)C(C)C)C(C)C)[C@@H](C)CC)[C@@H](C)OC(=O)[C@H](C(C)C)NC1=O [Compound 62, [(5R)-Ph-Pro^9, (4S)-MeHex^14]-KF]
- TGI HELA-APL ([1]; HELA-APL): 6.43E−06 Molar
- TGI MEL-28 ([2]; SRB): 6.43E−06 Molar
- TGI PANC-1 ([3]; PANC-1): 6.43E−06 Molar
- TGI LOVO ([4]; LOVO): 6.43E−06 Molar
- TGI A-549 ([5]; A-549): 6.43E−06 Molar
- TGI K-562 ([6]; K-562): 6.43E−06 Molar
- TGI HT-29 ([7]; HT-29): 6.43E−06 Molar
- TGI LOVO-DOX [14]: 6.43E−06 Molar
- TGI DU-145 ([8]; SRB): 6.43E−06 Molar
- TGI IGROV-ET ([9]; SRB): 6.43E−06 Molar
- TGI HELA ([11]; HELA): 6.43E−06 Molar
- TGI IGROV ([12]; SRB): 6.43E−06 Molar
- TGI LN-caP ([13]; SRB): 6.43E−06 Molar
